The text below walks through data of ChEMBL document CHEMBL1255172, “Discovery and structure-activity relationship of a novel spirocarbamate series of NPY Y5 antagonists” (Bioorg Med Chem Lett, 2010).

pKi: −log10 of the molar value.

For one data set, the target named is T1, Cytochrome P450 1A2 (Homo sapiens, UniProt P05177).
T1 sequence (P05177 whole entry): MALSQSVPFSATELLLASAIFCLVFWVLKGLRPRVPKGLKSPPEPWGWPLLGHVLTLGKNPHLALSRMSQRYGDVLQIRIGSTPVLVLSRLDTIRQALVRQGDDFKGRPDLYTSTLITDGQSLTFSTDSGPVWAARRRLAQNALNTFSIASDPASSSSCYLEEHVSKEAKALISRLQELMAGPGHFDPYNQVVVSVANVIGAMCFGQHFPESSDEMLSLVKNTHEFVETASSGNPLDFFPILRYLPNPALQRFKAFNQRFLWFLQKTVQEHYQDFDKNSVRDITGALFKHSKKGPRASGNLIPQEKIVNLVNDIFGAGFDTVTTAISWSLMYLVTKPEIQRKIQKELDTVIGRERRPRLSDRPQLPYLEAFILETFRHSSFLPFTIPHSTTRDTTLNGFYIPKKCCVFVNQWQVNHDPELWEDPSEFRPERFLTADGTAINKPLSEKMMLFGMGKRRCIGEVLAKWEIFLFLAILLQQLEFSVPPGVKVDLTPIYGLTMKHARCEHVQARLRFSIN
Put plainly: Inhibition of CYP1A2. Type of data set: ADME.

Another data set has as its target Cytochrome P450 2C9 (Homo sapiens, UniProt P11712). Put plainly: Inhibition of CYP2C9. The data set is classed as ADME.
Another data set has as its target Cytochrome P450 2D6 (Homo sapiens, UniProt P10635). Put plainly: Inhibition of CYP2D6. Type of data set: ADME.
Another data set has as its target Cytochrome P450 3A4 (Homo sapiens, UniProt P08684). Briefly: Inhibition of CYP3A4. Type of data set: ADME.
For data set [1], the system named is Liver microsomes. Put plainly: Intrinsic clearance in rat liver microsome. Type of data set: ADME. For orientation: Liver microsomes are a subcellular fraction often used to study metabolism.
Data set [2] has as its system Liver microsomes. Briefly: Intrinsic clearance in human liver microsome. Type of data set: ADME.
The next data set has as its target Cytochrome P450 2C19 (Homo sapiens, UniProt P33261). Put plainly: Inhibition of CYP2C19. The data set is classed as ADME.
For data set [3], the target named is T2, Neuropeptide Y receptor type 5 (Homo sapiens, UniProt Q15761).
T2 sequence (Q15761 whole entry): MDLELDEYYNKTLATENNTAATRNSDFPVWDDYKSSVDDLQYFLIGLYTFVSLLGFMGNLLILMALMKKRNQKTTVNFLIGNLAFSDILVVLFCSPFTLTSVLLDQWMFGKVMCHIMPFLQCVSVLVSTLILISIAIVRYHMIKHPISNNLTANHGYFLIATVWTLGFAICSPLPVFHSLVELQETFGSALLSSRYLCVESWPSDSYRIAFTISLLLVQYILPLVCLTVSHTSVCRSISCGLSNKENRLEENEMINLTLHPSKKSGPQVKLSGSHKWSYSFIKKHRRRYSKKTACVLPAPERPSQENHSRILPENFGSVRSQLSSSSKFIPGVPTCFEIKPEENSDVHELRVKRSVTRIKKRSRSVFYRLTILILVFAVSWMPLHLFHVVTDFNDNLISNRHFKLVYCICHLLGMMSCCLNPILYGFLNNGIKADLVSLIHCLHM
Briefly: Antagonist activity at human NPY Y5 receptor. The data set is classed as functional.

Data set [4] in a line: Protein binding in rat brain assessed as unbound fraction. The data set is classed as ADME, tissue-based. The settings on record: brain tissue.
Data set [5] can be described thus: Clearance in rat blood at 0.5 mg/kg, iv and 1 mg/kg, po. The settings on record: whole blood. The data set is classed as ADME, organism-based.
Data set [6] can be described thus: Oral bioavailability in rat at 1 mg/kg. Type of data set: ADME, organism-based. The settings on record: in vivo.
The nature of data set [7]: Ratio of drug uptake from blood to brain in rat. Type of data set: ADME, tissue-based. The note with it: brain and blood.
The test system of the next data set is Rattus norvegicus. Briefly: In vivo antagonist activity at NPY Y5 receptor in orally dosed rat assessed as reduction in food intake. The note with it: oral, read-out: MED.

Chain of Cytochrome P450 2C19 (P33261 whole entry): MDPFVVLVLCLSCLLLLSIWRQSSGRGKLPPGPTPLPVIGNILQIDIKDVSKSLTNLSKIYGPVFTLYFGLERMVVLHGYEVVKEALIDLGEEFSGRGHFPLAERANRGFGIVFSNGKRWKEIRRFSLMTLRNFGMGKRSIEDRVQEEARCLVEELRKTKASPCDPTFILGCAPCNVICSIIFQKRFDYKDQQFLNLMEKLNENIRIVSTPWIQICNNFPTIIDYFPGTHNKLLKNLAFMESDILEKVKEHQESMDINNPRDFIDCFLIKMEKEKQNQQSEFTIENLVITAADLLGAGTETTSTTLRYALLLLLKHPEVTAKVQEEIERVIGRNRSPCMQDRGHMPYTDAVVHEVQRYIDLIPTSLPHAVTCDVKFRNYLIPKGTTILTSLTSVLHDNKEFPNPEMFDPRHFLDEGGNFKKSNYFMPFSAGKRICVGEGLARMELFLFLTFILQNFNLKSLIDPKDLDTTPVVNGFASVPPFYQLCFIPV
Chain of Cytochrome P450 2C9 (P11712 whole entry): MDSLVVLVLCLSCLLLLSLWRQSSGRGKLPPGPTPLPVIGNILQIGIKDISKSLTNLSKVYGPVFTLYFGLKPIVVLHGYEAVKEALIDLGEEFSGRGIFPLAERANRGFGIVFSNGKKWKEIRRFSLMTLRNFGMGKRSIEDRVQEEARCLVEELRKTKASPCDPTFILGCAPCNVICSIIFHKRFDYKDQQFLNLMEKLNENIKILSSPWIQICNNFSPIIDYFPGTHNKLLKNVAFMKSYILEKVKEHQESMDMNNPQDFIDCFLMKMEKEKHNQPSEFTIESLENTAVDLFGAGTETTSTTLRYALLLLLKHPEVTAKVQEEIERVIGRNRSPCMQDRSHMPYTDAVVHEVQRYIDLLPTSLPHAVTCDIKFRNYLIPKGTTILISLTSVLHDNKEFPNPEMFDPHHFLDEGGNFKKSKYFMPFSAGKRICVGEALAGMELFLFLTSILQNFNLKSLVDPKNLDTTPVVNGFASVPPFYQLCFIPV
Chain of Cytochrome P450 2D6 (P10635 whole entry): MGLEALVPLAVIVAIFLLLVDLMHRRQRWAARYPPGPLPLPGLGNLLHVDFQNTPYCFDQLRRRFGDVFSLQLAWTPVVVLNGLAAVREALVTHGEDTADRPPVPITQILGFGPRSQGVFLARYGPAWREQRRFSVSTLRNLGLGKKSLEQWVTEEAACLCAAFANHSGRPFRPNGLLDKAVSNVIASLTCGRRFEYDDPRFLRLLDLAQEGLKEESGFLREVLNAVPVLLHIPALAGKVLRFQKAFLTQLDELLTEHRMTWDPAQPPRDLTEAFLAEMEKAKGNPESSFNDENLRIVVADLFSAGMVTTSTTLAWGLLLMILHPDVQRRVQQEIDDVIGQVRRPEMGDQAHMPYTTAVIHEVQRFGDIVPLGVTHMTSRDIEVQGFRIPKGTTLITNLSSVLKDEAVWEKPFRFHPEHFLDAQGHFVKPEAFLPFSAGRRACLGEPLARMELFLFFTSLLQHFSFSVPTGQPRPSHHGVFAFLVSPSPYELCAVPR
Chain of Cytochrome P450 3A4 (P08684 whole entry): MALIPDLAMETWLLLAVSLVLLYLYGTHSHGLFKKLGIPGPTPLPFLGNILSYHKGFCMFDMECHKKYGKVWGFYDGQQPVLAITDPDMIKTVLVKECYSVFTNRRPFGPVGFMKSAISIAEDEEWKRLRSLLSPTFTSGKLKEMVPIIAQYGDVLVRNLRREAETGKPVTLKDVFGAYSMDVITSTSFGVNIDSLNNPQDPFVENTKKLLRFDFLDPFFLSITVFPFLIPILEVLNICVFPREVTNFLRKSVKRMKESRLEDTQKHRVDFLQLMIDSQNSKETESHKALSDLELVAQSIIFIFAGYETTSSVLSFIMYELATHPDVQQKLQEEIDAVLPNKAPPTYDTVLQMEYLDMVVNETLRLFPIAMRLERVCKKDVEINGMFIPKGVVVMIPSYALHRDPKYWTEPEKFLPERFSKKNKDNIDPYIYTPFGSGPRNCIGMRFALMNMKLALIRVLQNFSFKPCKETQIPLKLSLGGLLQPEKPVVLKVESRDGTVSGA

`O=C(Nc1nc(-c2ccccn2)cs1)N1CCC2(CC1)CN(c1ccccc1)C(=O)O2`: the INH on Cytochrome P450 1A2, at Cytochrome P450 2C9, at Cytochrome P450 2D6, at Cytochrome P450 3A4 and on Cytochrome P450 2C19 was more than 10 µM in each case. The clearance turned out to be 0.5 mL/min/g with Liver microsomes [1] and 0.6 mL/min/g with Liver microsomes [2].

By pKi is commonly meant the negative decadic logarithm of the Ki, by convention in mol/L. A higher pKi goes with a small Ki. Broadly, the fraction unbound is the share of the substance not bound to proteins or other matrix. Broadly, the bioavailability is dose-corrected exposure relative to a reference, in per cent. Broadly, the Kp is the ratio of the level in a tissue or fluid to that in plasma or blood. Regarding `O=C1O[C@]2(CC[C@H](CNc3nc(-c4ccccn4)cs3)CC2)CN1c1ccccn1`, in data set [3], the pKi was 10.10. Further, the INH was more than 10 µM on Cytochrome P450 1A2; 6 µM on Cytochrome P450 2C9; more than 10 µM at Cytochrome P450 2D6; 3 µM at Cytochrome P450 3A4; 3 µM at Cytochrome P450 2C19. The fraction unbound in data set [4] worked out at 0.01. The compound further showed a clearance in [5] of 30 mL/min/kg. Moreover, the bioavailability in data set [6] was 35%. Further, in data set [7], the Kp turned out to be 0.7. Also, the CL in the data set with Liver microsomes [1] is 3.1 mL/min/g; in the data set on Liver microsomes [2], 4 mL/min/g. In addition, the minimal effective dose in the data set on Rattus norvegicus came to 10 mg/kg.

In the case of `O=C1O[C@]2(CC[C@H](CNc3cnn(-c4ccccc4F)c3)CC2)CN1c1cccnn1`, the pKi in [3] is 10.00. Besides, the INH at Cytochrome P450 1A2, at Cytochrome P450 2C9, at Cytochrome P450 2D6 and on Cytochrome P450 3A4 was more than 10 µM in each case. For the same compound, the fraction unbound in [4] came to 0.031. Besides, the clearance in data set [5] turned out to be 13 mL/min/kg. The compound also yielded a bioavailability in data set [6] of 52%. Also, the Kp in data set [7] came to 0.9. Moreover, the CL in the data set with Liver microsomes [1] and in the data set on Liver microsomes [2] was less than 0.5 mL/min/g in each case. For the same compound, the minimal effective dose in the data set on Rattus norvegicus worked out at 3 mg/kg.

Compound `O=C1O[C@]2(CC[C@H](CNc3ccc(-c4ccccc4F)nn3)CC2)CN1c1cccnn1` gave a pKi in [3] of 9.80. Besides, the INH on Cytochrome P450 1A2, at Cytochrome P450 2C9, at Cytochrome P450 2D6, on Cytochrome P450 3A4 and at Cytochrome P450 2C19 was more than 10 µM throughout. The fraction unbound in [4] was found to be 0.046. In data set [5], this compound came in with a clearance of 18 mL/min/kg. The same compound showed a bioavailability in [6] of 90%. Further, the Kp in data set [7] was 0.25. Further, the CL in the data set with Liver microsomes [1] and with Liver microsomes [2] was less than 0.5 mL/min/g each time.

`O=C1O[C@]2(CC[C@H](CNc3ccc(-c4cc(F)cc(F)c4)nn3)CC2)CN1c1cccnn1` gave a pKi in data set [3] of 10.00. Moreover, the INH on Cytochrome P450 1A2 is more than 10 µM; on Cytochrome P450 2C9 it was 8 µM; on Cytochrome P450 2D6 it was more than 10 µM; on Cytochrome P450 3A4 it was more than 10 µM. Moreover, the free fraction (fraction unbound) in data set [4] came out at 0.016. In addition, the clearance in data set [5] was 41 mL/min/kg. This compound also gave a bioavailability in [6] of 75%. For the same compound, in data set [7], the concentration ratio (Kp) was found to be 1.6. The CL in the data set on Liver microsomes [1] and in the data set with Liver microsomes [2] was less than 0.5 mL/min/g each time. The minimal effective dose in the data set with Rattus norvegicus was 3 mg/kg.

`O=C1O[C@]2(CC[C@H](CNc3ccc(-c4ncccc4F)cn3)CC2)CN1c1cccnn1` gave a pKi in [3] of 9.50. For the same compound, the INH on Cytochrome P450 1A2, on Cytochrome P450 2C9, on Cytochrome P450 2D6, at Cytochrome P450 3A4 and at Cytochrome P450 2C19 was more than 10 µM throughout. Further, the fraction unbound in [4] stood at 0.052. In [5], this compound yielded a clearance of 70 mL/min/kg. This compound displayed a bioavailability in data set [6] of 50%. Moreover, in data set [7], the Kp is 0.4.
